Laboratory results reported in patent publication US4542153A, “Methods for changing calcium metabolism within the cells of a mammal” (The Ohio State University Research Foundation, priority 1983, dated 1985).

Legend:
[1] = system: calcium-induced arrhythmias in rats; assay: Calcium-induced arrhythmias (CaCl2 injected i.v. into anesthetized rats)
Description: The experimental method used was that described in Lynch J. J., Rahwan R. G., Witiak D. T.: Effects of 2-substituted-3-dimethylamino-5,6-methylenedioxyindenes on calcium-inducedarrhythmias, J. Cardiovasc. Pharmacol. 3: 49-60 (1981). Male Sprague-Dawley rats weighing 180-250 grams were anesthetized with sodium pentobarbital and a cannula was inserted into the left jugular vein for drug administration. Electrocardiograph equipment was connected to the rat and the lead II was continuously monitored. The compound under test, dissolved in 5% dextrose solution, was administered into the jugular vein of anesthetized rats over a 40 second period. Ten minutes after this treatment, an acute dose of 1 ml/kg of a 10% CaCl2.2H2 O solution was injected into the jugular vein over a period of 10 seconds. The arrhythmias resulting from the calcium administration were graded according to the following criteria: (a) initial change in heart rate following calcium administration; (b) incidences of sinoatrial block, atrioventricular block, ectopic beats, and ventricular flutter and fibrillation; (c) time required for reversion to control ECG; and (d) incidence of mortality.

arrhythmia in mammals = details: in vivo
[2] = system: thoracic aorta strips contracted with norepinephrine; assay: Vasodilator activity: norepinephrine-contracted aortic strips; type: cell-based, male Sprague-Dawley rats
Description: Pr-MDI, bu-MDI, Q-bu-MDI and the compounds of Formulae IIIA, IIIB and IVA having the two R1 groups together forming a methylene group, each R3 a methyl group and R2 an n-propyl group or n-butyl group (the compounds of Formula III are hereinafter abbreviated as sat-pr-MDI and sat-bu-MDI respectively, reference being made where necessary to the cis isomer of Formula III A or the trans isomer of Formula III B while the compounds of Formula IV are similarly referred to as cis sat-Q-pr-MDI and cis sat-Q-bu-MDI) were tested for vasodilator activity by the method of R. F. Furchgott and S. Bhadrakom, J. P. Pharmacol. Ex. Ther., 108, 129-143 (1953).
The vasodilator activity tests were conducted on male Sprague-Dawley rats, obtained from Harlan Industries, Inc., Cumberland, Indiana. The rats, weight 250-300 g., were sacrified by cervical dislocation and a 2.5 cm. segment of the thoracic aorta was removed and rinshed in physiological buffer. Each aortic segment was cleaned of connective tissue and cut spirally two yield to strips, each 3 by 15 mm. Each strip was mounted isometrically under a tension of 1 g in a 10 ml. tissue bath thermostatically maintained at 37° C. and containing a normal physiological solution aerated with a 95% oxygen/5% carbon dioxide mixture. Forces generated by the strip were monitored using a Grass FT03 isometric transducer coupled to a Grass module 7D polygraph recorder, both the transducer and the recorder being obtained from Grass Instrument Co., of Quincy, Mass.
After the aortic tissue had been allowed to equilibriate for 1-1.5 hours in the normal physiologic solution, tissue contraction was induced by introducing either 10^-7 M norepinephrine or 40mM potassium chloride buffer to the tissue bath.
To avoid interference by loss of tension due to time dependent tissue fatigue, separate preliminary experiments were performed to determine the degree of tissue relaxation due to such fatigue and the value of the control tension generated by norepinephrine or potassium chloride prior to the addition of the test compounds was adjusted whenever the duration of the experiment was such that fatigue could be expected to cause more than a 6% loss of tension. […] All concentrations mentioned hereinafter represent the final concentration of the test compound after dilution in the tissue bath.
The figures of concentration against percent response data obtained from each aortic tissue were transformed to its appropriate probit value and IC50 values were then estimated using linear regression analysis. The normal physiological solution contained 6.9 g/l of sodium chloride, 0.35 g/l of potassium chloride, 0.11 g/l of magnesium chloride hexahydrate, 0.138 g/l of sodium dihydrogen phosphate, 2.1 g/l of sodium bicarbonate, 0.01 g/l of EDTA, 0.368 g/l of calcium chloride dihydrate and 2.0 g/l of dextrose. The high potassium buffers were obtained by substituting potassium chloride for sodium chloride on an equimolar basis to maintain tonicity.

In the case of `CCCCC1=Cc2cc3c(cc2C1[N+](C)(C)C)OCO3.[I-]` (stereo not drawn) [Q-bu-MDI, 2-Butyl-5,6-methylenedioxyindene-1-trimethylammonium iodide], the mortality rate ([1]; 0.5 mg/kg, i.v.) is reported as “zero”, the protection against arrhythmia ([1]; 0.5 mg/kg, i.v.) is reported as “almost complete protection” and the “protection against calcium-induced mortality” value ([1]; 0.5 mg/kg, i.v.) is reported as “complete protection against calcium-induced mortality”. For the same compound, the “protection against the calcium-induced bradycardia” value ([1]; 0.5 mg/kg, i.v.) was “partial protection”, the “time for reversion to a normal electrocardiogram” value ([1]; 0.5 mg/kg, i.v.) was “significantly reduced” and the “effectiveness in suppressing arrhythmias relative to pr-MDI and bu-MDI” value ([1]; calcium-induced arrhythmias) was 7-8 times. For the same compound, the “concentration effective against calcium-induced arrhythmias” value ([1]; i.v., 10 min before CaCl2) was 0.5 mg/kg, the deleterious side effects ([1]; i.v., Q-bu-MDI at 0.5 mg/kg, pr-MDI and bu-MDI at 3.75 mg/kg) was “no substantial deleterious side effects” and the “effectiveness relative to tertiary analog (bu-MDI), average over tests” value (arrhythmia in mammals) was “about four”. The “relaxation of the aortic tissue” value ([2]; norepinephrine- or KCl-treated tissue) was “relaxed the aortic tissue”, the “comparative vasodilator activity, norepinephrine-treated tissue” value ([2]; norepinephrine-treated aortic tissue) was “less active in vitro than their tertiary analogs” and the IC50 ([2]; rat aorta contracted with 10^-7 M norepinephrine, read-out: IC50 (mean and range of SEM) Norepinephrine) was 128 µM.
